Experimental data: ChEMBL document CHEMBL1909046, “DrugMatrix in vitro pharmacology data”

Experiments:
[1] = DRUGMATRIX: GABAA, Muscimol, Central radioligand binding (ligand: [3H] Muscimol); type: cell membranes, Rattus norvegicus, Wistar, Brain, Membrane; conditions: Not Active = under 50% inhibition at 10 µM
[2] = DRUGMATRIX: Sigma2 radioligand binding (ligand: [3H] Ifenprodil); type: cell membranes, Rattus norvegicus, Wistar, Brain, Membrane; conditions: Not Active = under 50% inhibition at 10 µM
[3] = DRUGMATRIX: Glutamate, AMPA radioligand binding (ligand: [3H] AMPA); type: cell membranes, Rattus norvegicus, Wistar, Cerebral cortex, Membrane; conditions: Not Active = under 50% inhibition at 10 µM
[4] = DRUGMATRIX: GABAA, Chloride Channel, TBOB radioligand binding (ligand: [3H] TBOB); type: cell membranes, Rattus norvegicus, Wistar, Cerebral cortex, Membrane; conditions: Not Active = under 50% inhibition at 10 µM
[5] = DRUGMATRIX: Potassium Channel [KATP] radioligand binding (ligand: [3H] Glyburide); type: cell membranes, Membrane; conditions: hit-t15; Not Active = under 50% inhibition at 10 µM
[6] = DRUGMATRIX: Platelet-Derived Growth Factor (PDGF) radioligand binding (ligand: [125I] PDGF); type: cell-based; conditions: nih3t3; Not Active = under 50% inhibition at 10 µM
[7] = DRUGMATRIX: Calcium Channel Type L, Dihydropyridine radioligand binding (ligand: [3H] Nitrendipine); type: cell membranes, Rattus norvegicus, Wistar, Cerebral cortex, Membrane; conditions: Not Active = under 50% inhibition at 10 µM
Estrogen receptor = molecular target: T1, Estrogen receptor (Homo sapiens, UniProt P03372); conditions: sf9; note: in other assays of this panel Not Active means under 50% inhibition at 10 µM
T1 sequence (P03372 whole entry): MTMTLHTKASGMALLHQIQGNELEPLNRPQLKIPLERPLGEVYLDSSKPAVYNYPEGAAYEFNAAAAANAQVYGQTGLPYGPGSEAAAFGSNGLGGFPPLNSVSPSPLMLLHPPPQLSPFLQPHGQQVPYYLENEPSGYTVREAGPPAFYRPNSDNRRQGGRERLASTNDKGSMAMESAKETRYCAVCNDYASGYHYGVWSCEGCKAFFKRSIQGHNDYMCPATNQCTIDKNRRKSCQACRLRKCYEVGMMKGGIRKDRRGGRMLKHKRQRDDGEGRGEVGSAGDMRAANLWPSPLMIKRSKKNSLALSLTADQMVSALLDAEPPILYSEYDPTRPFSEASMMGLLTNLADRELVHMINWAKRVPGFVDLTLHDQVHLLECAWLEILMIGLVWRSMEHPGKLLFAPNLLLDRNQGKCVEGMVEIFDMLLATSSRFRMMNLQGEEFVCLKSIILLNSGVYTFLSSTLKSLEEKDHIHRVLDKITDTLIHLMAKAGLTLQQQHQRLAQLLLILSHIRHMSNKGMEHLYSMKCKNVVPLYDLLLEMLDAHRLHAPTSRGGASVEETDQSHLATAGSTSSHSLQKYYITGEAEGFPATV

| Compound | IC50 [1] | Ki [1] | IC50 [2] | Ki [2] | IC50 [3] | Ki [3] | IC50 [4] | Ki [4] | IC50 [5] | Ki [5] | IC50 [6] | Ki [6] | IC50 [7] | Ki [7] | IC50 (Estrogen receptor) | IC50 ([7]; read-out: IC50) [nM] | Ki ([7]; read-out: Ki) [nM] | IC50 ([2]; read-out: IC50) [nM] | Ki ([2]; read-out: Ki) [nM] | Ki (Estrogen receptor) |
| --- | --- | --- | --- | --- | --- | --- | --- | --- | --- | --- | --- | --- | --- | --- | --- | --- | --- | --- | --- | --- |
| CCCCC(=O)N(Cc1ccc(-c2ccccc2-c2nnn[nH]2)cc1)[C@H](C(=O)O)C(C)C | Not Active | Not Active | Not Active | Not Active | Not Active | Not Active | Not Active | Not Active | Not Active | Not Active | Not Active | Not Active | Not Active | Not Active | Not Active |  |  |  |  |  |
| O=C(O)COc1ccc(C(=O)c2cccs2)c(Cl)c1Cl | Not Active | Not Active | Not Active | Not Active | Not Active | Not Active | Not Active | Not Active | Not Active | Not Active | Not Active | Not Active | Not Active | Not Active | Not Active |  |  |  |  |  |
| CN1[C@@H]2CC[C@H]1C[C@@H](OC(c1ccccc1)c1ccccc1)C2 [BENZTROPINE] |  |  |  |  |  |  |  |  |  |  |  |  |  |  | Not Active |  |  |  |  |  |
| C[C@@](Cc1ccc(O)c(O)c1)(NN)C(=O)O.O [CARBIDOPA] | Not Active | Not Active | Not Active | Not Active | Not Active | Not Active | Not Active | Not Active | Not Active | Not Active | Not Active | Not Active | Not Active | Not Active |  |  |  |  |  |  |
| CN1CCN(C2=Nc3cc(Cl)ccc3Nc3ccccc32)CC1 [CLOZAPINE] |  |  |  |  |  |  |  |  |  |  |  |  |  |  | Not Active |  |  |  |  |  |
| O=C(O)CCCCC1CCSS1 (stereo not drawn) [LIPOIC ACID, ALPHA] | Not Active | Not Active | Not Active | Not Active | Not Active | Not Active | Not Active | Not Active | Not Active | Not Active | Not Active | Not Active | Not Active | Not Active | Not Active |  |  |  |  |  |
| CN(C)C(=O)C(CCN1CCC(O)(c2ccc(Cl)cc2)CC1)(c1ccccc1)c1ccccc1 [LOPERAMIDE] |  |  |  |  |  |  |  |  |  |  |  |  |  |  | Not Active |  |  |  |  |  |
| Clc1ccc(COC(Cn2ccnc2)c2ccc(Cl)cc2Cl)c(Cl)c1 (stereo not drawn) [MICONAZOLE] |  |  |  |  |  |  |  |  |  |  |  |  |  |  | Not Active |  |  |  |  |  |
| Oc1ccc2c3c1O[C@H]1[C@@H](O)CC[C@@]4(O)[C@@H](C2)N(CC2CCC2)CC[C@]314 [NALBUPHINE] |  |  |  |  |  |  |  |  |  |  |  |  |  |  | Not Active |  |  |  |  |  |
| C[C@]12C=CC(=O)C=C1CC[C@@H]1[C@@H]2C(=O)C[C@@]2(C)[C@H]1CC[C@]2(O)C(=O)CO [PREDNISONE] | Not Active | Not Active | Not Active | Not Active | Not Active | Not Active | Not Active | Not Active | Not Active | Not Active | Not Active | Not Active | Not Active | Not Active | Not Active |  |  |  |  |  |
| COC(=O)[C@H]1[C@H]2C[C@@H]3c4[nH]c5cc(OC)ccc5c4CCN3C[C@H]2C[C@@H](OC(=O)c2cc(OC)c(OC)c(OC)c2)[C@@H]1OC [RESERPINE] | Not Active | Not Active | Not Active | Not Active | Not Active | Not Active | Not Active | Not Active | Not Active | Not Active | Not Active | Not Active |  |  |  | 821 | 528 |  |  |  |
| O=C(O)c1ccccc1O [SALICYLIC ACID] | Not Active | Not Active | Not Active | Not Active | Not Active | Not Active | Not Active | Not Active | Not Active | Not Active | Not Active | Not Active | Not Active | Not Active | Not Active |  |  |  |  |  |
| C[S+]([O-])c1ccc(-c2nc(-c3ccncc3)c(-c3ccc(F)cc3)[nH]2)cc1 (stereo not drawn) [SB-203580] |  |  |  |  |  |  |  |  |  |  |  |  |  |  | Not Active |  |  |  |  |  |
| CC1CCC(NC(=O)N(CCCl)N=O)CC1 (stereo not drawn) [SEMUSTINE] | Not Active | Not Active | Not Active | Not Active | Not Active | Not Active | Not Active | Not Active | Not Active | Not Active | Not Active | Not Active | Not Active | Not Active | Not Active |  |  |  |  |  |
| O=C1C[C@@H]2OCC=C3CN4CC[C@]56c7ccccc7N1[C@H]5[C@H]2[C@H]3C[C@H]46 [STRYCHNINE] | Not Active | Not Active | Not Active | Not Active | Not Active | Not Active | Not Active | Not Active | Not Active | Not Active | Not Active | Not Active | Not Active | Not Active |  |  |  |  |  |  |
| C[N+](C)(C)CCOC(=O)CCC(=O)OCC[N+](C)(C)C.[Cl-].[Cl-] [SUCCINYLCHOLINE CHLORIDE] | Not Active | Not Active | Not Active | Not Active | Not Active | Not Active | Not Active | Not Active | Not Active | Not Active | Not Active | Not Active | Not Active | Not Active | Not Active |  |  |  |  |  |
| Nc1ccc(S(=O)(=O)NC(=O)c2ccccc2)cc1 [SULFABENZAMIDE] | Not Active | Not Active | Not Active | Not Active | Not Active | Not Active | Not Active | Not Active | Not Active | Not Active | Not Active | Not Active | Not Active | Not Active | Not Active |  |  |  |  |  |
| CCCCCCCCNC(C)C(O)c1ccc(SC(C)C)cc1 (stereo not drawn) [SULOCTIDIL] | Not Active | Not Active |  |  | Not Active | Not Active | Not Active | Not Active | Not Active | Not Active |  |  |  |  | Not Active | 260 | 167 | 21.4 | 13.2 |  |
| O=c1[nH]c(=O)n(C2CCCO2)cc1F (stereo not drawn) [TEGAFUR] | Not Active | Not Active | Not Active | Not Active | Not Active | Not Active | Not Active | Not Active | Not Active | Not Active | Not Active | Not Active | Not Active | Not Active |  |  |  |  |  |  |
| CC(=N)S [THIOACETAMIDE] | Not Active | Not Active | Not Active | Not Active | Not Active | Not Active | Not Active | Not Active | Not Active | Not Active | Not Active | Not Active | Not Active | Not Active |  |  |  |  |  |  |
| Cc1ccc(C(=O)c2ccc(CC(=O)O)n2C)cc1 [TOLMETIN] | Not Active | Not Active | Not Active | Not Active | Not Active | Not Active | Not Active | Not Active | Not Active | Not Active | Not Active | Not Active | Not Active | Not Active | Not Active |  |  |  |  |  |
| CC(=O)OCC(COC(C)=O)OC(C)=O [TRIACETIN] | Not Active | Not Active | Not Active | Not Active | Not Active | Not Active | Not Active | Not Active | Not Active | Not Active | Not Active | Not Active | Not Active | Not Active |  |  |  |  |  |  |
| CN1CCN(CCCN2c3ccccc3Sc3ccc(C(F)(F)F)cc32)CC1 [TRIFLUOPERAZINE] | Not Active | Not Active | Not Active | Not Active | Not Active | Not Active | Not Active | Not Active | Not Active | Not Active | Not Active | Not Active | Not Active | Not Active |  |  |  |  |  |  |
| TRANSPLATIN | Not Active | Not Active | Not Active | Not Active | Not Active | Not Active | Not Active | Not Active | Not Active | Not Active | Not Active | Not Active | Not Active | Not Active | Not Active |  |  |  |  | Not Active |
